Assay results published in ChEMBL document CHEMBL1201862, “PubChem BioAssay data set” (2004).
Calls of active or inactive are those of the source.

Tests used:
cells [1] = format: functional, cell-based
cells [2] = format: functional, cell-based; remark: listed apart in the source
[3] = molecular target: T1, Heat shock factor protein 1 (Mus musculus, UniProt P38532); assay: inhibition of MG132-induced HSE-luciferase signal, confirmation, cell-based, NIH3T3, luminescence, dose retest (AID 2382); format: functional;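 further: NIH3T3 fibroblasts with HSF1-driven luciferase reporter stressed by proteasome inhibitor MG132; luminescence from HSF1-driven luciferase expression after 8 hours of MG132 stress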
T1 sequence (P38532 whole entry): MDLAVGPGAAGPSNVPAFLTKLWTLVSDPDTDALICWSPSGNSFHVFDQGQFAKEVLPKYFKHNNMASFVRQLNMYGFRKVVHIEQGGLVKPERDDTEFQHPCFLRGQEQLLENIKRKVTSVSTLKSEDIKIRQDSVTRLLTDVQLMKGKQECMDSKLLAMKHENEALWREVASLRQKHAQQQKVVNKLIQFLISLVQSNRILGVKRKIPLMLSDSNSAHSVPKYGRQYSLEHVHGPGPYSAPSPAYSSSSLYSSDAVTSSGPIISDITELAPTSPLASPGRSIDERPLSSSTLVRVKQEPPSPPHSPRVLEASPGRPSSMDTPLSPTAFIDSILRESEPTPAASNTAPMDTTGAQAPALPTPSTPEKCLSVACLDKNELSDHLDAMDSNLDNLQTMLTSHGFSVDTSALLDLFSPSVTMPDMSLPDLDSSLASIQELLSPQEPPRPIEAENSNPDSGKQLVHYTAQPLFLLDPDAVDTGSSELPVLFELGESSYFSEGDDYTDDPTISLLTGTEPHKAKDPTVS

[4] = tested on: Streptococcus sp. 'group A'; assay: growth inhibition of control SK(-) GAS strain, dose response, counter-screen for streptokinase expression inhibitor project, luminescence, kanamycin, BacTiterGlo, confirmation (AID 1900); format: functional, organism-based
Streptokinase A = molecular target: T2, Streptokinase A (Streptococcus pyogenes serotype M1, UniProt P10520); assay: S. pyogenes streptokinase expression inhibitors, potency, dose response, plasminogen activation absorbance, OD405 (AID 1914); format: functional, Streptococcus pyogenes M1 GAS;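 further: secreted streptokinase activity via plasminogen activation per viability signal from cell pellet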
T2 sequence (P10520 whole entry): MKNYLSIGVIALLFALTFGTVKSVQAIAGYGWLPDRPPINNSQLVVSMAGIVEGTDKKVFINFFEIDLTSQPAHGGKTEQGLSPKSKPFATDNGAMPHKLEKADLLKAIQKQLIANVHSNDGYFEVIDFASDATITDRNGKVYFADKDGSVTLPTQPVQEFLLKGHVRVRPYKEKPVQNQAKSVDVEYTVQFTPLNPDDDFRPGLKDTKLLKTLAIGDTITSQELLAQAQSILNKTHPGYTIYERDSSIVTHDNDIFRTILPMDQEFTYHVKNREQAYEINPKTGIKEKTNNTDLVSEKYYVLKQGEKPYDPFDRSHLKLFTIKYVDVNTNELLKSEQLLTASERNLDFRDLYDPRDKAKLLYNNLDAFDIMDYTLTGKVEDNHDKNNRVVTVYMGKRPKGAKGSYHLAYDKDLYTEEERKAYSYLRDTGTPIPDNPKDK

Streptococcus = assay: Group A Streptococcus viability loss, dose response, counter-screen for streptokinase expression inhibitor project, luminescence, BacTiterGlo (AID 1915); format: functional, organism-based;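 further: potency for reduction of bacterial viability or growth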
BJ [5] = assay: cytotoxicity toward BJ-TERT fibroblasts, dose response, cell-based, RAS-independent, luminescence (AID 1933); format: functional; settings: Homo sapiens
BJ [6] = assay: cells; format: functional, cell-based; settings: Homo sapiens
BJ [7] = assay: cytotoxicity toward BJ-TERT-LT-ST fibroblasts, dose response, cell-based, RAS-independent, luminescence (AID 1935); format: functional; settings: Homo sapiens;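 further: BJ fibroblasts immortalized with TERT plus LT and ST oncogenes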
[8] = cytotoxicity toward DRD oncogenic fibroblasts, dose response, cell-based, non-viral oncogenic, luminescence (AID 1934); format: functional; settings: Homo sapiens
[9] = molecular target: Luciferin 4-monooxygenase (Photinus pyralis, UniProt P08659); assay: firefly luciferase enzyme inhibitors, dose response, biochemical, luminescence (AID 1891)
[10] = Luminescence Cell-Based Dose Confirmation HTS to Identify Inhibitors of Platelet Dense Granule Release. [Related pubchem assays: 1663 (Primary HTS), 1678 (Summary of Project)]; format: functional
Coagulation factor XII = molecular target: T3, Coagulation factor XII (Homo sapiens, UniProt P00748); format: functional;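 further: activated factor XIIa alpha cleaving a fluorogenic AMC peptide substrate; inhibitor potency from loss of enzyme activity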
T3 sequence (P00748 whole entry): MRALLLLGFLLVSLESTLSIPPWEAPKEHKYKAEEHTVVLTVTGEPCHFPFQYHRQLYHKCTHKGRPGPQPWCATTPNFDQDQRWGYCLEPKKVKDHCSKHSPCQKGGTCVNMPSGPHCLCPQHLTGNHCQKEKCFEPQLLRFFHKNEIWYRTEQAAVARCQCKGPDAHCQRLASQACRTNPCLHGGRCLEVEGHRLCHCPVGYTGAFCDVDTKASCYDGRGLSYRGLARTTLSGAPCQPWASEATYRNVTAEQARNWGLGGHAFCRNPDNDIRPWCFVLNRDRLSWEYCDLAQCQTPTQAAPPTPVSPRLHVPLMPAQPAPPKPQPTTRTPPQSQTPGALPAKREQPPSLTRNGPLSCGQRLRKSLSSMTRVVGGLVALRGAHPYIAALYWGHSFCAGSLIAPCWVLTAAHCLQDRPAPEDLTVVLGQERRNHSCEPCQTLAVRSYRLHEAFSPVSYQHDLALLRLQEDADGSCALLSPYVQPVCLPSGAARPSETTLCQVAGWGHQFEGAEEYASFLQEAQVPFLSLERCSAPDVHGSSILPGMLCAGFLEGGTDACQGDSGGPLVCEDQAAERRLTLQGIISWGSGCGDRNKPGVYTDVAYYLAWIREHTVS

[11] = molecular target: T4, RNA-binding protein pos-1 (Caenorhabditis elegans, UniProt G5EF15); assay: inhibitors of POS-1/mex-3 RNA binding, dose response, biochemical, fluorescence polarization (AID 1964);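 further: purified POS-1 fused to maltose binding protein made in E. coli; potency of compounds blocking POS-1 binding to fluorescent RNA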
T4 sequence (G5EF15 whole entry): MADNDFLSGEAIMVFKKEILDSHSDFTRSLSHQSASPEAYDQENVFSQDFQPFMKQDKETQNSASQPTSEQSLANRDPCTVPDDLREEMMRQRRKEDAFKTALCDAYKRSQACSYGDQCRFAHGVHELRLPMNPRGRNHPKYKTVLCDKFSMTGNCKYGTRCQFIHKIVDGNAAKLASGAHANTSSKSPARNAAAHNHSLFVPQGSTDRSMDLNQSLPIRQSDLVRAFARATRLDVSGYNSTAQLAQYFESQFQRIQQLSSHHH

[12] = molecular target: T5, Zinc finger protein mex-5 (Caenorhabditis elegans, UniProt Q9XUB2); assay: MEX-5/TCR-2 RNA interaction inhibitors, dose response, biochemical, C. elegans, fluorescence polarization (AID 1960)
T5 sequence (Q9XUB2 whole entry): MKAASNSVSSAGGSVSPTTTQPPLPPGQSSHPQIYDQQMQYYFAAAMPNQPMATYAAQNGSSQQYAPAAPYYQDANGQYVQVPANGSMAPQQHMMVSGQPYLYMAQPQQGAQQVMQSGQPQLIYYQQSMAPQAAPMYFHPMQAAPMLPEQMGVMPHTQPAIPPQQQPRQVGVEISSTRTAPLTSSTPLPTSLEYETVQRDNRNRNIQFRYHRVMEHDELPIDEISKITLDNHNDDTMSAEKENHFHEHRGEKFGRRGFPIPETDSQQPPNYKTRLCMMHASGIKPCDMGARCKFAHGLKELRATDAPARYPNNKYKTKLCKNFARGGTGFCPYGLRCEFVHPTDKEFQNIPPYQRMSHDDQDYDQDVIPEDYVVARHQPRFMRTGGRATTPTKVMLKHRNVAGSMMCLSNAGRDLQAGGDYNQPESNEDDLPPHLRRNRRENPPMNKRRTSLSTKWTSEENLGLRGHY

[13] = growth suppression of PTEN-null colon cells, dose response, cell-based, HCT116 PTEN knockout (AID 1047); format: functional;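 further: HCT116 colon tumor cells with PTEN knocked out; cells exposed to compound for 60 hours before readout; potency for loss of cell viability measured by luminescence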
[14] = growth suppression of beta-catenin-knockout colon cells, dose response, cell-based, HCT116, human colon tumor (AID 1045); format: functional;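 further: HCT116 colon tumor cells with beta catenin knocked out; cells exposed to compound for 60 hours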
[15] = inhibitors of firefly luciferase expression or activity, dose response, H4 neuroglioma cells, luminescence (AID 1990); format: functional, cell-based
[16] = Luminescence Cell-Based Dose Response HTS to Identify Inhibitors of 5'UTR Stem-Loop Driven Prion Protein mRNA Translation in H4 Neuroglioblastoma Cells. [Related pubchem assays: 1827 (Project Summary), 1813 (Primary HTS)]; format: functional
[17] = inhibitors of SNCA 5'UTR-driven reporter translation, confirmation, H4 neuroglioma cells, luminescence (AID 1988); format: functional, cell-based
Cytochrome P450 2C19 = Cytochrome P450 2C19 (Homo sapiens, UniProt P33261); assay: Cytochrome panel assay with activity outcomes. Panel member name: p450-cyp2c19 Compounds with AC50 equal or less than 10 uM are considered active; format: functional; settings: read-out: AC50
Cytochrome P450 1A2 = molecular target: T6, Cytochrome P450 1A2 (Homo sapiens, UniProt P05177);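 further: PubChem cytochrome P450 panel assay, CYP1A2 panel member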
T6 sequence (P05177 whole entry): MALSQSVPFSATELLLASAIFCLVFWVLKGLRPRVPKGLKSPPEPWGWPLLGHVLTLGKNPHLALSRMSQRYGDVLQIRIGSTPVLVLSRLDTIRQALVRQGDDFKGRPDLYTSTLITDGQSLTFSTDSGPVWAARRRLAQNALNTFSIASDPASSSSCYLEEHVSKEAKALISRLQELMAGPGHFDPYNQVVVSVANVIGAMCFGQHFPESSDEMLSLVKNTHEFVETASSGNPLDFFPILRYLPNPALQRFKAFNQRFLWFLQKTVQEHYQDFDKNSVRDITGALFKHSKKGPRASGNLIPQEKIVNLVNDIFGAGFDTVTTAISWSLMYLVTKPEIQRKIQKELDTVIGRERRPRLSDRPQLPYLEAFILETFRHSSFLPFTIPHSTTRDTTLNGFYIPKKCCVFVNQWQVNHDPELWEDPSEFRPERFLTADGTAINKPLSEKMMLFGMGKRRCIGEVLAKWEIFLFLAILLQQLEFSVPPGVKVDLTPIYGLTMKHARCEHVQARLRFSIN

Cytochrome P450 2C9 = Cytochrome P450 2C9 (Homo sapiens, UniProt P11712)
Chain of Cytochrome P450 2C9 (P11712 whole entry): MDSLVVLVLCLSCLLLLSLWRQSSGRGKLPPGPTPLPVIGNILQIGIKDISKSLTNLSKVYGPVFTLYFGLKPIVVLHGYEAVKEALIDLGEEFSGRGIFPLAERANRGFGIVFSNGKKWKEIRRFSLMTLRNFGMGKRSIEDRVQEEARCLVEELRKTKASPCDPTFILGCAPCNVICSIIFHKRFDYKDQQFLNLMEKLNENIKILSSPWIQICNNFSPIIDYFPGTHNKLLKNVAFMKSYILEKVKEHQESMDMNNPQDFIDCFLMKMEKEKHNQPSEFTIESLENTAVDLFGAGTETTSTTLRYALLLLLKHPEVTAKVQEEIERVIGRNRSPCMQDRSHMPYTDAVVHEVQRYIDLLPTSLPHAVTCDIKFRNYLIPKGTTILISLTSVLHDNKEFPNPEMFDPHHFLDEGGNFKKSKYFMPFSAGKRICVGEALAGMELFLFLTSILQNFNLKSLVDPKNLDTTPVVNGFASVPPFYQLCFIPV

Chain of Luciferin 4-monooxygenase (P08659 whole entry): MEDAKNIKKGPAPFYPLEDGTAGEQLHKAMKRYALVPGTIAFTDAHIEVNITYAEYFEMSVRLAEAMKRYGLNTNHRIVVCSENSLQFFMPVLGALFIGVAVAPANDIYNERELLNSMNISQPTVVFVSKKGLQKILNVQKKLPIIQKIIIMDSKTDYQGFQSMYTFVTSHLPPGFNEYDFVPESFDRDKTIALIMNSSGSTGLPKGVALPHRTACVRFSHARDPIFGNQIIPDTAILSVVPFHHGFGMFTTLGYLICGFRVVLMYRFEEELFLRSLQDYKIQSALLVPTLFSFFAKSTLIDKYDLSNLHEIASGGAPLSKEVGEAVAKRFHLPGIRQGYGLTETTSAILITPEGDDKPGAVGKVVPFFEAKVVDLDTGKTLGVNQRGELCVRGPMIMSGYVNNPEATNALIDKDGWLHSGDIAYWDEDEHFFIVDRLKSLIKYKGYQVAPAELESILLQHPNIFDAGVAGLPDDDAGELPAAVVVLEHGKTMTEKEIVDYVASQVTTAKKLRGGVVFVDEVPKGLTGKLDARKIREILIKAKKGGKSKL
Chain of Cytochrome P450 2C19 (P33261 whole entry): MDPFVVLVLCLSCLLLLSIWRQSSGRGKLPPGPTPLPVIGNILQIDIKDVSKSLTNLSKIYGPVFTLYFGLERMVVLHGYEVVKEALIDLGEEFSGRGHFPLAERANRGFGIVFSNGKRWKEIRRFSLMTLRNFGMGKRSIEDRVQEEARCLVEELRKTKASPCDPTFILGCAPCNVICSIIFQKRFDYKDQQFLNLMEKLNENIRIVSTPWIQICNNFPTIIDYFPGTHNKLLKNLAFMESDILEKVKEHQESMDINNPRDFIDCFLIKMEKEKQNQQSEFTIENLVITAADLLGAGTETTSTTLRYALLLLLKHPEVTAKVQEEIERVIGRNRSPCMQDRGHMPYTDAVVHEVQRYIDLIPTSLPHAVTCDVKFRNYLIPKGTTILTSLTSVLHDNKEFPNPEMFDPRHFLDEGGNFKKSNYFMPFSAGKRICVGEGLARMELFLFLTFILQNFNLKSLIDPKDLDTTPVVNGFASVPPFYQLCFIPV

Q: Which results are given for `COc1ccccc1CNC(=O)c1cccc(NC(=O)c2ccccc2)c1`?
A: EC50 (cells [1]): > 350 µM (not active); EC50 (cells [2]): 56.2 µM (active)

Q: With `Nc1c(NC(=O)CC[n+]2ccccc2)cccc1[N+](=O)[O-]` as the compound, how does the EC50 [3] read?
A: 7.93 µM (active)

Q: Which EC50 [4] does the source give for `CCOc1ccc(NC(=O)c2ccc3c(=O)n(-c4ccc(OC)cc4OC)c(=S)[nH]c3c2)cc1` here?
A: 7.86 µM (active)

Q: And the EC50 [3]?
A: > 195 µM (not active)

Q: And the EC50 (Streptokinase A)?
A: > 150 µM (not active)

Q: What about the EC50 (Streptococcus) of the same compound?
A: 12.4 µM (active)

Q: What does the source list for `COC(=O)c1ccc(C)c(NC(=O)CN(c2cc(OC)ccc2OC)S(C)(=O)=O)c1`?
A: EC50 (BJ [5]): > 150 µM (not active); EC50 (BJ [6]): > 150 µM (not active); EC50 (BJ [7]): > 150 µM (not active); EC50 [8]: > 150 µM (inconclusive)

Q: For `CCOc1ccccc1NC(=O)COC(=O)Cc1cccs1`, which EC50 [9] is on record?
A: > 112 µM (not active)

Q: What about the EC50 [10] of the same compound?
A: > 112 µM (not active)

Q: Which IC50 (Coagulation factor XII) does the source give for `CCCCCCCCCC(=O)Nn1cnc2ccccc2c1=O` here?
A: > 50 µM (inactive)

Q: For `Cn1cccc1/C=C1\C(=O)NC(=O)N(CCC2=CCCCC2)C1=O`, which EC50 [11] is on record?
A: 230 µM (inconclusive)

Q: What about the EC50 [12] of the same compound?
A: 35.6 µM (inconclusive)

Q: And the EC50 [13]?
A: 67.2 µM (active)

Q: What about the EC50 [14] of the same compound?
A: 82.1 µM (active)

Q: Which EC50 [3] does the source give for `CCCNC(=O)N1CCCC(C(=O)c2cccc(Cl)c2)C1` (stereo unspecified) here?
A: > 195 µM (not active)

Q: Which EC50 [15] does the source give for `Cc1ccc(Cl)cc1N1CCN(C(=O)c2cn(C)c(=O)c3c2c2ccccc2n3C)CC1` here?
A: 12.4 µM (active)

Q: And the EC50 [4]?
A: 3.51 µM (active)

Q: What about the EC50 [16] of the same compound?
A: 20.5 µM (active)

Q: And the EC50 [17]?
A: 11.4 µM (active)

Q: And the EC50 (Streptokinase A)?
A: 9.73 µM (active)

Q: And the EC50 [13]?
A: 3.36 µM (active)

Q: And the EC50 [14]?
A: 4.17 µM (active)

Q: What about the EC50 (Streptococcus) of the same compound?
A: 22.8 µM (active)

Q: For `O=C(C[n+]1cc(-c2ccccc2)n2c1CCC2)Nc1nc(-c2ccccc2)cs1`, which IC50 (Coagulation factor XII) is on record?
A: > 50 µM (inactive)

Q: Which EC50 [9] does the source give for `Cc1cc(=O)oc2cc(OCCSCCN3CCCC3)ccc12` here?
A: > 112 µM (not active)

Q: What about the EC50 [10] of the same compound?
A: > 112 µM (not active)

Q: For `CCN1C(=O)C(CC(=O)Nc2ccc(OC)cc2)N(Cc2ccc3c(c2)OCO3)C1=S` (stereo unspecified), which EC50 [3] is on record?
A: > 195 µM (not active)

Q: For `Cc1c(C(c2cccc([N+](=O)[O-])c2O)c2c(C)n(C)n(-c3ccccc3)c2=O)c(=O)n(-c2ccccc2)n1C`, which EC50 [9] is on record?
A: > 112 µM (not active)

Q: What about the EC50 [10] of the same compound?
A: > 112 µM (not active)

Q: And the AC50 (Cytochrome P450 2C19)?
A: 35.5 µM (inconclusive)

Q: And the AC50 (Cytochrome P450 1A2)?
A: 15.8 µM (inconclusive)

Q: And the AC50 (Cytochrome P450 2C9)?
A: 0.00562 µM (inconclusive)
